Laboratory results from patent US11649227B2, “Allosteric chromenone inhibitors of phosphoinositide 3-kinase (PI3K) for the treatment of disease” (Petra Pharma Corporation, priority 2020, dated 2023).

Legend:
[1] = target: human full length PIK3CA Wild-type (p110α/p85α complex) (Homo sapiens (Human), UniProt P42336); experiment: PI3K-Alpha kinase (PIK3CA) activity, wild-type, Transcreener ADP2 FI assay; conditions: PI3K-α (PIK3CA) wild-type, biochemical
Method: (§1) PI3K-Alpha kinase (PIK3CA) activity, wild-type and H1047R mutant and determining IC50 values for inhibitors
(§2) Recombinant, catalytically active human full length PIK3KA Wild-type and H1047R mutant were purchased as 1:1 complex of N-terminal 6×his tagged p110<(catalytic) and untagged p85<(regulatory subunit) from EMD Millipore Sigma (cat. no. 14-602M and 14-792M, respectively). The enzyme stocks were diluted to 5× stocks in buffer (20 mM HEPES pH 7.4, 100 mM NaCl, 0.5 mM EGTA, 0.01% triton-x-100) just before use. PIP2diC8 (Avanti Polar Lipids Inc., cat. no. 850185) or phosphoinositol-4,5-bisphosphate with phosphoserine (PIP2:PS) membrane (Thermo Fisher Scientific, cat. no. PV5100) was used as lipid substrates. PIP2diC8 lyophilized powder and PIP2:PS (1:19) membrane stock (1 mM in PIP2) were separately dissolved in milliQ water to a concentration of 250 uM and stored in −20° C. 10 mM stocks of compounds were serially diluted (3×) in neat DMSO and stored in a dessicator at room temperature. 5× compound stocks in 25% DMSO were prepared fresh from neat DMSO stocks. Wild-type (WT) and H1047R mutant protein, along with buffer components (except ATP), were incubated with or without compound at 27° C. for 1h. After incubation, the reaction was initiated by the addition of 5 uL of 125 uM ATP. A typical assay mixture (25 uL) comprised 40 mM HEPES buffer, pH 7.4, 25 mM MgCl2, 0.01% v/v triton-X-100, 5% v/v DMSO, 20 mM NaCl, 1-5 nM wt or H1047R, 25 uM ATP, and 50 uM PTP2diC8 or PTP2 in membrane. The reaction was allowed to proceed until about […] (2.5 uM ADP) after which time, 10 uL of reaction mixture was quenched with 25 uL of transcreener reagent (Transcreener ADP2 FI assay kit, BellBrook labs, Cat. No. 3013). The contents were incubated at rt for 1h and fluorescence was measured using a plate reader (Paradigm, Molecular Devices). The same assay was also run at pH 6.0 or 6.4 using MOPS buffer (Fisher BioReagents, CAS 1132-61-2). A calibration curve was generated under identical buffer conditions with varying ADP amounts. Using that, the observed fluorescence was converted to uM ADP. A plot between [ADP] and log[I] yielded the dose-response curves that enabled the calculation of IC50s.

[2] = target: human full length PIK3CA H1047R mutant (p110α/p85α complex) (Homo sapiens (Human), UniProt P42336, H1047R); experiment: PI3K-Alpha kinase (PIK3CA) activity, H1047R mutant, Transcreener ADP2 FI assay; conditions: PI3K-α (PIK3CA) H1047R mutant, biochemical
Sequence of human full length PIK3CA H1047R mutant (p110α/p85α complex) (P42336 whole entry H1047R): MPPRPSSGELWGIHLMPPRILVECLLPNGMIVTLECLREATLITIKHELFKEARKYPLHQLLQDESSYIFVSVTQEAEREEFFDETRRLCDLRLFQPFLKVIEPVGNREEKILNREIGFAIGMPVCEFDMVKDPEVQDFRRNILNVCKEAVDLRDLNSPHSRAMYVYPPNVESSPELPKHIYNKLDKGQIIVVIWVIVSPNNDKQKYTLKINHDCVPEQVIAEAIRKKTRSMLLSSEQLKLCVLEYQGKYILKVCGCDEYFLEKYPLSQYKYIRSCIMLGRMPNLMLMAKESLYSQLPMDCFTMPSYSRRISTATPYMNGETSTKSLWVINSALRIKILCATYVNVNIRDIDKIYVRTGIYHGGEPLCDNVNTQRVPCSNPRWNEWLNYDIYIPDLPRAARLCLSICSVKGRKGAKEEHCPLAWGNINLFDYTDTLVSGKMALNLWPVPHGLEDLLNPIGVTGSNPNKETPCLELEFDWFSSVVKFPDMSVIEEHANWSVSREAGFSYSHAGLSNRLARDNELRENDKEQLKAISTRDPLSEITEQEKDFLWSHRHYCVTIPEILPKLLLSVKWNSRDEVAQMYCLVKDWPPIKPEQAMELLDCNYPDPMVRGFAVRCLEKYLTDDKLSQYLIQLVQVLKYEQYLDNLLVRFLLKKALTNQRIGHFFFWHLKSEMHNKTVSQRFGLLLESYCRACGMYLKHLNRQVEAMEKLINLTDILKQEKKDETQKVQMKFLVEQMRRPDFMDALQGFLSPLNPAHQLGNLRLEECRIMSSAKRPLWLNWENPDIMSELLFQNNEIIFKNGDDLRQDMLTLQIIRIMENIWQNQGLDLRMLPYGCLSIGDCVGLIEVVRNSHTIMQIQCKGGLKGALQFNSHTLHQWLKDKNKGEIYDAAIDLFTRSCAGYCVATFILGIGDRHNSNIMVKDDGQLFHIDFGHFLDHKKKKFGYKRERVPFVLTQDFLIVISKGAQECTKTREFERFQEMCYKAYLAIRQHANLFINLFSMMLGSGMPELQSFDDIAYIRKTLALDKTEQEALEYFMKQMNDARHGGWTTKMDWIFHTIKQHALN
Sequence of human full length PIK3CA H1047R mutant (p110α/p85α complex) (P27986 whole entry partner): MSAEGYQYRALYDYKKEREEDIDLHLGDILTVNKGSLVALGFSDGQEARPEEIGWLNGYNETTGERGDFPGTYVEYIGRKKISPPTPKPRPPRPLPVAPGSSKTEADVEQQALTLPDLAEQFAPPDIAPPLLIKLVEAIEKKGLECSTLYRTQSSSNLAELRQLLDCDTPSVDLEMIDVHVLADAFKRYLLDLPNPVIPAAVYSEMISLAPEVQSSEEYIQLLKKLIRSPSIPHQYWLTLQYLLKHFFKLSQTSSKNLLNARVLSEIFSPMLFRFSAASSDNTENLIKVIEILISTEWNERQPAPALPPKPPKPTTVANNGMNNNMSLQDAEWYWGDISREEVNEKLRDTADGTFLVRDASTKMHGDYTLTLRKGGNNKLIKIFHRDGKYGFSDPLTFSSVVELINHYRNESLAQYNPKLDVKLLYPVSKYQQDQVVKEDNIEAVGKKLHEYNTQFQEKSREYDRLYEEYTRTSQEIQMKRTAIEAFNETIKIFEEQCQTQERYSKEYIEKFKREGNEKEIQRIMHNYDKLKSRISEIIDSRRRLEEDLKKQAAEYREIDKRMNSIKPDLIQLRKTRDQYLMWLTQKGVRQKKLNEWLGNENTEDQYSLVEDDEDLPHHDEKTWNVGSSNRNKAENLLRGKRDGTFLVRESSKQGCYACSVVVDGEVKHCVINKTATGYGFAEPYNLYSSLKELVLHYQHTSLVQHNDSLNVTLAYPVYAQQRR
Method: as §1, §2

Sequence of human full length PIK3CA Wild-type (p110α/p85α complex) (P42336 whole entry): as the sequence (P42336 whole entry H1047R) above, with R1047H counted along it
Sequence of human full length PIK3CA Wild-type (p110α/p85α complex) (P27986 whole entry partner): as the sequence (P27986 whole entry partner) above

Row | Compound | IC50 [1] [µM] | IC50 [2] [µM]
1 | Cc1cc(C(C)Nc2ccccc2C(=O)O)c2oc(N3CCC(C)(C)CC3)c(-c3cnoc3)c(=O)c2c1 (single isomer, unassigned) [Example 53] | 0.5 to 1 | < 0.5
2 | Cc1cc(C(C)Nc2ccccc2C(=O)O)c2oc(N3CCC(C)(C)CC3)c(-c3cnoc3)c(=O)c2c1 (single isomer, unassigned) [Example 54, 2-[1-[2-(4,4-Dimethyl-1-piperidyl)-3-isoxazol-4-yl-6-methyl-4-oxo-chromen-8-yl]ethylamino]benzoic acid] | > 10 | > 10
3 | COC12CC(C1)N(c1cc(=O)c3cc(C)cc(C(C)Nc4ccccc4C(=O)O)c3o1)C2 (single isomer, unassigned) [Example 111, 2-[1-[2-(4-Methoxy-2-azabicyclo[2.1.1]hexan-2-yl)-6-methyl-4-oxo-chromen-8-yl]ethylamino]benzoic acid] | > 10 | > 10
4 | COC12CC(C1)N(c1cc(=O)c3cc(C)cc(C(C)Nc4ccccc4C(=O)O)c3o1)C2 (single isomer, unassigned) [Example 112, 2-[1-[2-(4-Methoxy-2-azabicyclo[2.1.1]hexan-2-yl)-6-methyl-4-oxo-chromen-8-yl]ethylamino]benzoic acid] | 1 to 5 | 0.5 to 1
5 | Cc1cc(C(C)Nc2ccccc2C(=O)O)c2oc(N3Cc4ccc(F)cc4C3)cc(=O)c2c1 (single isomer, unassigned) [Example 123, 2-[1-[2-(5-Fluoroisoindolin-2-yl)-6-methyl-4-oxo-chromen-8-yl]ethylamino]benzoic acid] | 0.5 to 1 | < 0.5
6 | Cc1cc(C(C)Nc2ccccc2C(=O)O)c2oc(N3Cc4ccc(F)cc4C3)cc(=O)c2c1 (single isomer, unassigned) [Example 124, 2-[1-[2-(5-Fluoroisoindolin-2-yl)-6-methyl-4-oxo-chromen-8-yl]ethylamino]benzoic acid] | > 10 | 5 to 10
7 | Cc1cc(C(C)Nc2ccccc2C(=O)O)c2oc(N3CCC(c4ccncc4)C3)cc(=O)c2c1 (single isomer, unassigned) [Example 194, 2-[1-[6-Methyl-4-oxo-2-[3-(4-pyridyl)pyrrolidin-1-yl]chromen-8-yl]ethylamino]benzoic acid 2,2,2-trifluoroacetic acid] | > 10 | 0.5 to 1
8 | Cc1cc(C(C)Nc2ccccc2C(=O)O)c2oc(N3CC4(CCN4c4ccccc4)C3)cc(=O)c2c1 (single isomer, unassigned) [Example 203, 2-[1-[6-Methyl-4-oxo-2-(1-phenyl-1,6-diazaspiro[3.3]heptan-6-yl)chromen-8-yl]ethylamino]benzoic acid 2,2,2-trifluoroacetic acid] | 1 to 5 | < 0.5
9 | CCC1(c2ccccc2)CN(c2cc(=O)c3cc(C)cc(C(C)Nc4ccccc4C(=O)O)c3o2)C1 (single isomer, unassigned) [Example 212, 2-[1-[2-(3-Ethyl-3-phenyl-azetidin-1-yl)-6-methyl-4-oxo-chromen-8-yl]ethylamino]benzoic acid 2,2,2-trifluoroacetic acid] | 0.5 to 1 | < 0.5
10 | Cc1cc(C(C)Nc2ccccc2C(=O)O)c2oc(N3CC4(C3)CC(F)(F)C4)cc(=O)c2c1 (single isomer, unassigned) [Example 222, 2-[1[2-(6,6-Difluoro-2-azaspiro[3.3]heptan-2-yl)-6-methyl-4-oxo-chromen-8-yl]ethylamino]benzoic acid 2,2,2-trifluoroacetic acid] | 1 to 5 | < 0.5
11 | Cc1cc(C(C)Nc2ccccc2C(=O)O)c2oc(N3CC(c4ccccc4)C3)cc(=O)c2c1 (single isomer, unassigned) [Example 236, 2-[1-[6-Methyl-4-oxo-2-(3-phenylazetidin-1-yl)chromen-8-yl]ethylamino]benzoic acid 2,2,2-trifluoroacetic acid] | 0.5 to 1 | < 0.5
12 | Cc1cc(C(C)Nc2cccc(F)c2C(=O)O)c2oc(N3Cc4ccc(F)cc4C3)c(C)c(=O)c2c1 (single isomer, unassigned) [Example 244, 2-Fluoro-6-[1-[2-(5-fluoroisoindolin-2-yl)-3,6-dimethyl-4-oxo-chromen-8-yl]ethylamino]benzoic acid] | 5 to 10 | > 10
13 | Cc1cc(C(C)Nc2ccccc2C(=O)O)c2oc(N3Cc4ccc(F)cc4C3)c(C)c(=O)c2c1 (single isomer, unassigned) [Example 272, 2-[1-[2-(5-Fluoroisoindolin-2-yl)-3,6-dimethyl-4-oxo-chromen-8-yl]ethylamino]benzoic acid] | 0.5 to 1 | < 0.5
14 | Cc1c(N2Cc3ccc(F)cc3C2)oc2c(C(C)Nc3ccccc3C(=O)O)cc(F)cc2c1=O (single isomer, unassigned) [Example 319, 2-[1-[6-Fluoro-2-(5-fluoroisoindolin-2-yl)-3-methyl-4-oxo-chromen-8-yl]ethylamino]benzoic acid] | 0.5 to 1 | < 0.5

Now from value to molecule:

Row | IC50 [1] [µM] | IC50 [2] [µM] | Compound
15 | < 0.5 | < 0.5 | Cc1c(N2Cc3ccccc3C2)oc2c(C(C)Nc3ccccc3C(=O)O)cc(F)cc2c1=O (single isomer, unassigned) [Example 324, 2-[1-(6-Fluoro-2-isoindolin-2-yl-3-methyl-4-oxo-chromen-8-yl)ethylamino]benzoic acid]
16 | < 0.5 | < 0.5 | Cc1c(N2CCC(F)(F)CC2)oc2c(C(C)Nc3ccccc3C(=O)O)cc(F)cc2c1=O (single isomer, unassigned) [Example 326, 2-[1-[2-(4,4-Difluoro-1-piperidyl)-6-fluoro-3-methyl-4-oxo-chromen-8-yl]ethylamino]benzoic acid]
17 | < 0.5 | < 0.5 | Cc1c(N2CCC3(CC2)CC3)oc2c(C(C)Nc3ccccc3C(=O)O)cc(F)cc2c1=O (single isomer, unassigned) [Example 328, 2-[1-[2-(6-Azaspiro[2.5]octan-6-yl)-6-fluoro-3-methyl-4-oxo-chromen-8-yl]ethylamino]benzoic acid]
18 | 0.5 to 1 | < 0.5 | CC(Nc1ccccc1C(=O)O)c1cc(C(F)(F)F)cc2c(=O)cc(N3Cc4ccc(F)cc4C3)oc12 (single isomer, unassigned) [Example 335, 2-[1-[2-(5-Fluoroisoindolin-2-yl)-4-oxo-6-(trifluoromethyl)chromen-8-yl]ethylamino]benzoic acid]
19 | < 0.5 | < 0.5 | CC(Nc1ccccc1C(=O)O)c1cc(C(F)(F)F)cc2c(=O)cc(N3Cc4ccccc4C3)oc12 (single isomer, unassigned) [Example 342, 2-[1-[2-Isoindolin-2-yl-4-oxo-6-(trifluoromethyl)chromen-8-yl]ethylamino]benzoic acid]
20 | 0.5 to 1 | < 0.5 | Cc1c(N2Cc3ccc(F)cc3C2)oc2c(C(C)Nc3ccccc3C(=O)O)cc(C(F)(F)F)cc2c1=O (single isomer, unassigned) [Example 343, 2-[1-[2-(5-Fluoroisoindolin-2-yl)-3-methyl-4-oxo-6-(trifluoromethyl)chromen-8-yl]ethylamino]benzoic acid]
21 | 0.5 to 1 | < 0.5 | Cc1c(N2Cc3ccccc3C2)oc2c(C(C)Nc3ccccc3C(=O)O)cc(C(F)(F)F)cc2c1=O (single isomer, unassigned) [Example 348, 2-[1-[2-Isoindolin-2-yl-3-methyl-4-oxo-6-(trifluoromethyl)chromen-8-yl]ethylamino]benzoic acid]
